Results on 9 compounds are retold here after US7186825B2, “Conformationally restricted polyamine analogs as disease therapies” (Cellgate, Inc., priority 1999, dated 2007).

The test system of series [1] is human prostate cancer cells PC3. The series can be described thus: MTT assay, survival/growth of cultured human prostate cancer cells PC3. Format: cell-based. The settings on record: for EC50: figure legends, survival of cultured PC3 cells, MTT, six days after drug treatment, read-out: ED50 (the source's name); for IC50: read-out: concentration needed for 50% growth inhibition (ID50), Table 3, PC-3. The protocol: (§1) Human breast cancer cell line MCF7 was grown in Richter's Improved Modified Eagle's Medium supplemented with 10% fetal bovine serum (FBS) and 2.2 g/L sodium bicarbonate. Human brain tumor cell line U251 MG-NCI was grown in Dulbecco's Modified Eagle's Medium supplemented with 10% FBS. Human lung cancer cell line A549 was grown in Ham's F-12K medium (Cellgro, Mediatech, Inc., VA), supplemented with 10% FBS and 2 mM L-glutamine. Human colon cancer cell line HT29 was cultured in McCoy's 5A medium (Gibco, BRL, Gaithersburg, Md.) supplemented with 10% FBS. Human prostate cancer cell lines PC-3, LNCAP and DuPro were grown in RPMI 1640 Medium (Cellgro, Mediatech, Inc., VA) supplemented with 10% FBS. Another human prostate cancer cell line DU145 was grown in Dulbecco's Modified Eagle's Medium (Gibco, BRL, Gaithersburg, Md.) supplemented with 5% FBS. The A549, MCF7, PC3, LNCAP and DuPro cell lines were cultured in 100 units/mL penicillin and 100 μg/mL streptomycin. HT29 and U251MG cell lines were grown in 50 μg/mL gentamycin (Gibco, BRL, Gaithersburg, Md.). DU145 cell line was maintained in 1% antibitic-antimycotic solution (Sigma, St. Louis, Mo.). The cell cultures were maintained at 37° C. in 5% CO2/95% humidified air. DuPro cells were obtained from M. Eileen Dolan, University of Chicago. All other cells are available from the American Type Culture Collection, Rockville, Md.
(§2) A conventional MTT assay was used to evaluate percent cell survival. Exponentially growing monolayer cells were plated in 96-well plates at a density of 500 cells per well and allowed to grow for 24 hours. Serial dilutions of the drugs were added to the wells. Six days after drug treatment, 25 μl of MTT solution (5 mg/ml) was added to each well and incubated for 4 hours at 37° C. Then 100 μl of lysis buffer (20% sodium dodecyl sulfate, 50% DMF, and 0.8% acetic acid, pH 4.7) was added to each well and incubated for an additional 22 hours. A microplate reader (“EMAX”-brand, Molecular Devices, Sunnyvale, Calif.) set at 570 nm was used to determine the optical density of the cultures. Results are expressed as a ratio of the optical density in drug-treated wells to the optical density in wells treated with vehicle only.
(§3) Using the protocols of Example 2, the porphyrin-polyamine conjugates were tested for activity in vitro in various cancer cell lines.
In general terms: Tetrazolium assays rely on reduction of a dye to a coloured formazan, in cell work by metabolically active cells.

The test system of series [2] is human prostate cancer cells DU145. The series can be described thus: MTT assay, survival/growth of cultured human prostate cancer cells DU145. Format: cell-based. The settings on record: for EC50: figure legends, survival of cultured DU145 cells, MTT, six days after drug treatment, read-out: ED50 (the source's name); for IC50: read-out: concentration needed for 50% growth inhibition (ID50), Table 3, DU-145. The protocol:
as §1, §2, §3

Series [3] concerns human prostate cancer cells DUPRO. The series can be described thus: MTT assay, survival/growth of cultured human prostate cancer cells DUPRO. Format: cell-based. The settings on record: for EC50: figure legends, survival of cultured DUPRO cells, MTT, six days after drug treatment, read-out: ED50 (the source's name); for IC50: read-out: concentration needed for 50% growth inhibition (ID50), Table 3, DUPRO. The protocol: as §1, §2, §3

Series [4] deals with human prostate cancer cells LNCAP. The experiment in a line: MTT assay, survival/growth of cultured human prostate cancer cells LNCAP. Type of series: cell-based. The settings on record: figure legends, survival of cultured LNCAP cells, six days after drug treatment, read-out: ED50 (the source's name). The protocol:
as §1, §2, §3

The subject of series [5] is human colon cancer cells HT29. The experiment in a line: MTT assay, survival/growth of cultured human colon cancer cells HT29. Type of series: cell-based. The settings on record: for IC50: read-out: concentration needed for 50% growth inhibition (ID50), Table 3, HT-29. The protocol:
(§4) As shown in Table 3 and FIGS. 1–32, several novel conformationally restricted polyamine analogs were tested for anti-proliferative properties against cancer cells.
as §1, §2

The test system of series [6] is human lung cancer cells A549. The series can be described thus: MTT assay, survival/growth of cultured human lung cancer cells A549. Format: cell-based. The settings on record: for EC50: figure legends, survival of cultured A549 cells, MTT, six days after drug treatment, read-out: ED50 (the source's name); for IC50: read-out: concentration needed for 50% growth inhibition (ID50); for IC50 / concentration needed for 50% growth inhibition (ID50): Table 3, A549. The protocol:
as §4, §1, §2

Series [7] relates to human breast cancer cells MCF7. The experiment in a line: MTT assay, survival/growth of cultured human breast cancer cells MCF7. The settings on record: for EC50: figure legends, survival of cultured MCF7 cells, MTT, six days after drug treatment, read-out: ED50 (the source's name); for IC50: read-out: concentration needed for 50% growth inhibition (ID50), Table 3, MCF7. Format: cell-based. The protocol: as §4, §1, §2

The subject of series [8] is human brain tumor cells U251 MG NCI. The series can be described thus: MTT assay, survival/growth of cultured human brain tumor cells U251 MG NCI. Type of series: cell-based. The settings on record: for EC50: figure legends, survival of cultured U251 MG NCI cells, MTT, six days after drug treatment, read-out: ED50 (the source's name); for IC50: read-out: concentration needed for 50% growth inhibition (ID50), Table 3, U251MG. The protocol:
as §1, §2

Counter-ions that a name gives are not always drawn. Like-named read-outs stand apart in the source and are kept apart here. A value given as a limit tells only on which side of the number the result lay.

As to `CCNCCCCNCCCCNCCCCNCCCC1=C(C)c2cc3[nH]c(cc4nc(cc5[nH]c(cc1n2)c(CCCNCCCCNCCCCNCCCCNCC)c5C)C(CC)=C4C)c(CC)c3C` (as salt: hydrochloride) [SL-11202], the melting point came out at 200 °C.

Regarding `CCNCCCCNCCCCNCCCCNCCCCNCC` [BE-4444, 1,19-bis(ethylamino)-5,10,15-triazanonadecane, reference compound], the EC50 in [1] (Homo sapiens, PC-3, 144 h) was 600 nM; in [2] (Homo sapiens, DU-145, 144 h), 70 nM; in series [3] (Homo sapiens, 144 h), 200 nM; in series [4] (Homo sapiens, 144 h), 140 nM; in series [5] (Homo sapiens, HT-29, 144 h, figure legends, survival of cultured HT29 cells, MTT, six days after drug treatment, read-out: ED50 (the source's name)) it was 500 nM; in series [6] (Homo sapiens, 144 h), above 31200 nM. In series [7] (Homo sapiens, 144 h), the EC50 is above 31200 nM. In addition, the IC50 in series [1] (Homo sapiens) is 540 nM; in [2] (Homo sapiens), 70 nM; in [3] (Homo sapiens) it was 200 nM; in series [5] (Homo sapiens) it was 800 nM; in series [6] (Homo sapiens), 400 nM; in [7] (Homo sapiens) it was above 31200 nM.

For the compound `CCNCCCCNCC1CC1CNCCCCNCC` (centres unmarked) [SL-11093], the EC50 in [1] was determined as 1600 nM; in series [2] it was 16 nM; in [4] it was 210 nM; in series [6], 260 nM; in [7], 660 nM; in series [8], 70 nM. The IC50 was determined as 14300 nM in series [1]; 10 nM in [2]; 60 nM in [3]; 400 nM in [5]; 260 nM in series [6]; 660 nM in series [7].

Consider `CCNCCCCNCC1CC1CNCCCCNCC` (centres unmarked) [SL-11098], for which the EC50 in series [1] stood at 1400 nM; in series [2], 20 nM; in series [4] it was 170 nM; in series [6], 290 nM; in [8], 100 nM. Further, the IC50 in series [1] was 1400 nM; in series [2], 18 nM; in series [3], 80 nM; in [5], 400 nM; in series [7], above 31200 nM; in series [8], 100 nM. The “concentration needed for 50% growth inhibition (ID50)” value in series [6] was found to be 510 nM.

With `CCNCCCCNCC1CCC1CNCCCCNCC` (centres unmarked) [SL-11099], the EC50 in series [1] turned out to be 2500 nM; in series [2] it was 14 nM; in series [3] it was 80 nM; in series [4], 210 nM; in series [6], 510 nM; in series [7], 26300 nM. The EC50 in series [8] turned out to be 110 nM. In addition, the IC50 in series [1] came out at 2500 nM; in series [2], 14 nM; in series [3], 80 nM; in [5] it was 1000 nM; in [7] it was 26300 nM; in series [8] it was 110 nM. Besides, the “concentration needed for 50% growth inhibition (ID50)” value in series [6] is 650 nM.

Regarding `CCNCCCCNCC1CCC1CNCCCCNCC` (centres unmarked) [SL-11100], the EC50 in series [1] was 4700 nM; in series [2] it was 21 nM; in series [3], 300 nM; in series [4], 700 nM; in series [6] it was 650 nM; in [8] it was 220 nM. In addition, the IC50 was 4700 nM in series [1]; 21 nM in series [2]; 290 nM in [3]; 2000 nM in [5]; above 31200 nM in series [7]; 220 nM in series [8]. Besides, the “concentration needed for 50% growth inhibition (ID50)” value in [6] stood at 2200 nM.

As to `CCNC/C=C\CNC/C=C\CNC/C=C\CNCC` [SL-11108], the EC50 in series [1] amounted to 2200 nM; in series [2], 130 nM; in series [3], 980 nM; in series [4], 7700 nM; in [8], 2000 nM. In addition, the IC50 in series [1] was 2200 nM; in [2], 130 nM; in [3], 980 nM; in [5], 2000 nM; in series [7], above 31200 nM; in [8], 2000 nM. For the same compound, the “concentration needed for 50% growth inhibition (ID50)” value in series [6] was above 31250 nM.

As for `CCNC/C=C\CNCCCCNCCCCNCCCCNCC` [SL-11121], the EC50 in [1] (Homo sapiens, PC-3, 144 h) is 520 nM; in series [2] (Homo sapiens, DU-145, 144 h) it was 80 nM; in series [3] (Homo sapiens, 144 h) it was 400 nM; in [4] (Homo sapiens, 144 h) it was 140 nM; in series [6] (Homo sapiens, 144 h) it was above 31200 nM; in [7] (Homo sapiens, 144 h) it was 17000 nM. Also, the IC50 in [1] (Homo sapiens) is 520 nM; in series [2] (Homo sapiens) it was 80 nM; in series [3] (Homo sapiens), 400 nM; in series [5] (Homo sapiens), 800 nM; in series [6] (Homo sapiens), above 31200 nM; in series [7] (Homo sapiens), 17000 nM.

On to `CCNC/C=C\CNC/C=C\CNC/C=C\CNC/C=C\CNCC` [SL-11126], for which the EC50 in series [1] (Homo sapiens, PC-3, 144 h) is 200 nM; in series [2] (Homo sapiens, DU-145, 144 h) it was 510 nM; in series [3] (Homo sapiens, 144 h), 1100 nM; in series [4] (Homo sapiens, 144 h) it was 550 nM; in series [6] (Homo sapiens, 144 h) it was above 31200 nM; in [7] (Homo sapiens, 144 h) it was 700 nM. Moreover, the IC50 is 200 nM in series [1] (Homo sapiens); 510 nM in [2] (Homo sapiens); 1100 nM in series [3] (Homo sapiens); 1500 nM in [5] (Homo sapiens); above 31200 nM in [6] (Homo sapiens); 700 nM in series [7] (Homo sapiens).

The term melting point denotes the temperature, or range, at which the solid turns liquid.
